Structures can show the parent of a compound that is named as a salt.
What was measured:
Type in all cases: in vivo
rats = assay: Formation of cotton ball granuloma in rats (Example 59 Test 2); details: 12 mg/kg intragastric, two weeks
Protocol: Rats were randomly divided into five groups (model control group, indomethacin group, rhein glucosamine large dose group and low dose group and rhein sodium group). Each group included 10 rats, and built models according to the method in the literature [Xu Shuyun, Methodology in Pharmacological Experiment (the 3rd version): 918]. The rats were administered by medicines from the day when starting the operation. […] The rats were killed in two weeks, and tests were performed according to the methods in the literature, the net weight of granulation was calculated, and t test was used for the intergroup comparison.

mice [1] = assay: Intestinal propulsion in mice; details: dosage 12 mg/kg, intravenous injection
Protocol: Fifty mice, male, weighting from 18 to 22 g, were randomly divided into five groups, namely, model control group, domperidone group, rhein sodium group, rhein glucosamine large dose group and low dose group.
Each group has 10 mice respectively. The mice were fasted, but water was not prohibited, and then administered with medicines by intravenous injection. After that, tests were carried on immediately according to the methods in the literature[Xu Shuyun, Methodology in Pharmacological Experiment (the 3rd version): 1313]. The intestinal propulsive rates were calculated, and t test was used for the intergroup comparison.

mice [2] = assay: Xylene-induced swelling of auricle in mice; details: ig 40 mg/kg, 3 days
Protocol: Fifty male Kunming mice were selected, weighing 18-22 g each, and randomly divided into five groups, namely, model control group, aspirin group, rhein sodium group, rhein glucosamine large dose group and low dose groups. Each group had 10 mice respectively. The mice were administered with medicines by intragastric administration every day, for 0.2 ml/10 g body weight. The mice of the model control group were administered with equal volume of physiological saline, once every day, continuously administration for 3 days. After 60 minutes of the final administration, carried on test according to the method in the literature [Xu Shuyun, Methodology in Pharmacological Experiment (the 3rd version): 911]. The sweeling degree of auricle was calculated and statistical analysis was conducted.

obese hyperglycemia mice = assay: Body weight and blood glucose of obese hyperglycemia mice
Protocol: 9-week-old obese mice of hyperglycemia were randomly divided into: rhein sodium group, non-treatment group, rosiglitazone group, rhein lysine high-dose group and low-dose group, each group has 6 mice. Kunming mice of the same age were used as the control group, which were fed by conventional feedstuff with free food and water feeding. Rhein lysine conjugates [the dose is 180 mg/kg (0.418 mmol/kg) and 90 mg/kg (0.209 mmol/kg) for intragastric infusion, prepared with distilled water], dose of the rhein sodium group is 130 mg/kg (0.424 mmol/kg), the mixture was dissolved with distilled water, intragastric administration; rosiglitazone group (the dose is 4 mg/kg), the mixture was dissolved with distilled water, intragastric administration, and the rats of the other two groups were administered with the same volume of distilled water, once a day, 12 weeks of administration in succession. The animals' body weight and blood sugar were measured regularly, and statistical analysis was conducted.

mice [3] = assay: Immune function in mice (clearance index, phagocytic index); details: ig 40 mg/kg, 3 days
Protocol: Fifty Kunming mice, half male and half female, weighing 18-22 g each were selected and randomly divided into five groups, namely, model control group, cyclophosphamide group, rhein sodium group, rhein glucosamine large dose group and small dose group, 10 mice for each group. The mice were administered with medicines by intragastric administration, 0.2 ml/10 g body weight, once every day and administered for 3 days in succession. After the mice were administered with medicines, 30 minutes later, test was carried on according to the method in the literature [Xu Shuyun, Methodology in Pharmacological Experiment (the 3rd version): 934]. The […] and corrected phagocytic index α were calculated, and t-test was conducted for statistical analysis.

diabetic rats = assay: Diabetic nephrosis of obese diabetic rats (high-fat high-sugar diet plus STZ); details: six months, ig 65 mg/kg
Protocol: Animal model of diabetic rats: after one month of high-fat high-sugar diet, the rats (about 180 g) were injected by sub-pathogenic dose (25 mg/kg) of streptozotocin (STZ) to induce the occurrence of diabetes. The model has the characteristics of moderate hyperglycemia, hyperlipidemia and insulin resistance as well as pathological changes of typical diabetic nephrosis.
• 1. Conventional feedstuff control group: distilled water. • 2. Diabetes model group: distilled water. • 3. Rhein lysine diabetes treatment group: a month after STZ injection, rhein lysine complex [prepared with distilled water, intragastric infusion for rats according to 90 mg/kg (0.209 mmol/kg) dose] was administered referred to treatment group 1. • 4. Rhein sodium diabetes treatment group: a month after STZ injection, rhein sodium [prepared with distilled water, intragastric infusion for rats, according to 65 mg/kg (0.212 mmol/kg) dose] was administered, referred to treatment group 2. • 5. Rhein lysine diabetes prevention group: one week after STZ injection, rhein lysine conjugates were administered [prepared with distilled water and intragastric infusion for rats, according to 90 mg/kg (0.209 mmol/kg) dose], referred to prevention group 1. • 6. Rhein sodium diabetes prevention group: one week after STZ injection, rhein sodium were administered [prepared with distilled water and intragastric infusion for rats, according to 65 mg/kg (0.212 mmol/kg ) dose], referred to prevention group 2.

mice [4] = assay: Acetic acid-induced writhing response in mice; details: ig 40 mg/kg, 12 days
Protocol: Fifty Kunming mice, half male and half female, weighing 18-22 g each, were selected and randomly divided into five groups, namely, model control group, aspirin group, rhein sodium group, rhein glucosamine large dose group and small dose group, 10 mice for each group. The mice were administered with medicine by intragastric administration every day, 0.2 ml/10 g body weight, once every day, and administered for 12 days in succession. After the final administration of medicines, 30 minutes later, test was carried on according to the methods in the literature [Xu Shuyun, Methodology in Pharmacological Experiment (the 1st version): 882]. The inhibiting rate for writhing response was calculated.

[5] = baseline of group given ig 130 mg/kg once a day

Compound: O=C(O)c1cc(O)c2c(c1)C(=O)c1cccc(O)c1C2=O [Rhein sodium salt, rhein sodium salt]
- net weight of granulation (rats): 15.87 ± 3.31 mg
- Propulsive rate (mice [1]): 51.69 ± 7.1 %
- inhibition rate (mice [2]): 29.8%
- swelling degree of auricle (mice [2]): 12.5 ± 2.2 mg
- Blood glucose prior to administration (obese hyperglycemia mice; [5]): 28.9 ± 4.8 mmol/L
- Body weight prior to administration (obese hyperglycemia mice; [5]): 28.9 ± 1.8 g
- Blood glucose 6 w after administration (obese hyperglycemia mice; ig 130 mg/kg once a day): 31.2 ± 5.5 mmol/L
- Blood glucose 9 w after administration (obese hyperglycemia mice; ig 130 mg/kg once a day): 33.5 ± 5.4 mmol/L
- Blood glucose 12 w after administration (obese hyperglycemia mice; ig 130 mg/kg once a day): 30.1 ± 4.5 mmol/L
- Body weight 6 w after administration (obese hyperglycemia mice; ig 130 mg/kg once a day): 35.8 ± 1.5 g
- Body weight 9 w after administration (obese hyperglycemia mice; ig 130 mg/kg once a day): 39.5 ± 1.4 g
- Body weight 12 w after administration (obese hyperglycemia mice; ig 130 mg/kg once a day): 41.1 ± 1.5 g
- Clearance index (k) (mice [3]): 0.0272 ± 0.0124
- Phagocytic index (α) (mice [3]): 4.9134 ± 0.7498
- Urine protein (diabetic rats; preventive administration from one week after STZ): 11.54 ± 2.98 mg/24 h
- Kidney weight index (double kidney weight/body weight × 10^4) (diabetic rats; preventive administration): 5.21 ± 0.68
- Serum total cholesterol (diabetic rats; preventive administration): 2.89 ± 0.31 mM
- Serum triacylglycerol (diabetic rats; preventive administration): 1.68 ± 0.45
- Steady blood sugar level (diabetic rats; preventive administration): 6.7 ± 0.8 mmol/L
- Steady insulin level (diabetic rats; preventive administration): 72.6 ± 3.6 uU/ml
- Weight (diabetic rats; preventive administration): 243 ± 12 g
- blood sugar (diabetic rats; preventive administration): 15.08 ± 5.7 mmol/L
- Urine protein (diabetic rats; treatment from a month after STZ): 16.15 ± 7.71 mg/24 h
- Kidney weight index (double kidney weight/body weight × 10^4) (diabetic rats; treatment): 6.9 ± 0.83
- Serum total cholesterol (diabetic rats; treatment): 3.71 ± 0.63 mM
- Serum triacylglycerol (diabetic rats; treatment): 1.66 ± 0.47
- Steady blood sugar level (diabetic rats; treatment): 5.9 ± 0.8 mmol/L
- Steady insulin level (diabetic rats; treatment): 81 ± 4.5 uU/ml
- Weight (diabetic rats; treatment): 229 ± 16 g
- blood sugar (diabetic rats; treatment): 17.3 ± 3.3 mmol/L
- Inhibiting rate (mice [4]): 37.7%
- Times of writhing (mice [4]): 20.1 ± 8.9 per/20 min

Reference: patent US9181172B2, “Rhein conjugates, preparation method thereof and their uses in producing medicines for treating diabetic nephrosis, intestinal adhesion and osteoarthritis” (priority 2005, dated 2015)
